From ChEMBL document CHEMBL1255225, “Antiviral activity of various 1-(2'-deoxy-β-D-lyxofuranosyl), 1-(2'-fluoro-β-D-xylofuranosyl), 1-(3'-fluoro-β-D-arabinofuranosyl), and 2'-fluoro-2',3'-didehydro-2',3'-dideoxyribose pyrimidine nucleoside analogues against duck hepatitis B virus (DHBV) and human hepatitis B virus (HBV) replication” (J Med Chem, 2010) come the findings set out here.

Each structure is given as a SMILES string.

Series [1] has as its system Hepatitis B virus. The series can be described thus: Antiviral activity against HBV assessed as inhibition of viral DNA replication relative to control. It counts as functional. Details: concentration or dose not given beside the values.
Series [2] concerns Duck hepatitis B virus. In words: Antiviral activity against DHBV infected in duck hepatocytes assessed as inhibition of viral DNA replication relative to control. It counts as functional, Hepatocyte. Details: concentration or dose not given beside the values.
Series [3] is described as follows: Cytotoxicity against HuH7 cells. It counts as cell-based, Huh-7. The conditions noted are these: human.
Series [4] deals with Hepatitis B virus. The series can be described thus: Antiviral activity against HBV assessed as inhibition of viral DNA replication at 10 ug/mL. It counts as functional. Details: scale not given: the % may be the effect or the level left.
The test system of series [5] is Duck hepatitis B virus. In words: Antiviral activity against DHBV infected in duck hepatocytes assessed as inhibition of viral DNA replication at 10 ug/ml. It counts as functional, Hepatocyte. Details: scale not given: the % may be the effect or the level left.
Series [6] has as its system Duck hepatitis B virus. In words: Antiviral activity against DHBV infected in duck hepatocytes assessed as inhibition of viral DNA replication. It counts as functional, organism-based. Conditions: Hepatocyte.
The test system of series [7] is Hepatitis B virus. The series can be described thus: Antiviral activity against HBV assessed as inhibition of viral DNA replication. It counts as functional, organism-based.
For series [8], the system named is Hepatitis B virus. The series can be described thus: Antiviral activity against HBV assessed as inhibition of viral DNA replication at 5 ug/mL. It counts as functional. Also noted: scale not given: the % may be the effect or the level left.
Series [9] deals with Hepatitis B virus. The series can be described thus: Antiviral activity against drug resistant HBV infected in M204I cells assessed as inhibition of viral DNA replication. It counts as functional, organism-based.
Series [10] has as its system Hepatitis B virus. The series can be described thus: Antiviral activity against drug resistant HBV infected in M204I cells assessed as inhibition of viral DNA replication at 5 ug/mL. It counts as functional. Also noted: scale not given: the % may be the effect or the level left.
Series [11] has as its system Duck hepatitis B virus. The series can be described thus: Antiviral activity against DHBV infected in duck hepatocytes assessed as inhibition of viral DNA replication at 1 ug/ml. It counts as functional, Hepatocyte. Details: scale not given: the % may be the effect or the level left.
The test system of series [12] is Hepatitis B virus. The series can be described thus: Antiviral activity against HBV assessed as inhibition of viral DNA replication at 0.5 ug/mL. It counts as functional. Details: scale not given: the % may be the effect or the level left.
Series [13] has as its system Hepatitis B virus. The series can be described thus: Antiviral activity against HBV assessed as inhibition of viral DNA replication at 1 ug/mL. Details: scale not given: the % may be the effect or the level left. It counts as functional.
Series [14] deals with Hepatitis B virus. In words: Antiviral activity against drug resistant HBV infected in M204I cells assessed as inhibition of viral DNA replication at 1 ug/mL. It counts as functional. Also noted: scale not given: the % may be the effect or the level left.
The test system of series [15] is Duck hepatitis B virus. The series can be described thus: Antiviral activity against DHBV infected in duck hepatocytes assessed as inhibition of viral DNA replication at 0.05 ug/ml. It counts as functional, Hepatocyte. Details: scale not given: the % may be the effect or the level left.
Series [16] relates to Hepatitis B virus. The series can be described thus: Antiviral activity against drug resistant HBV infected in M204I cells assessed as inhibition of viral DNA replication at 10 ug/mL. It counts as functional. Details: scale not given: the % may be the effect or the level left.
For series [17], the system named is Hepatitis B virus. In words: Antiviral activity against drug resistant HBV infected in M204I cells assessed as inhibition of viral DNA replication at 1 to 5 ug/mL. It counts as functional. Also noted: scale not given: the % may be the effect or the level left.
Series [18] relates to Duck hepatitis B virus. In words: Antiviral activity against DHBV infected in duck hepatocytes assessed as inhibition of viral DNA replication at 0.01 to 0.05 ug/mL. It counts as functional, Hepatocyte. Details: scale not given: the % may be the effect or the level left.
Series [19] has as its system Hepatitis B virus. In words: Antiviral activity against HBV assessed as inhibition of viral DNA replication at 0.5 to 1 ug/mL. It counts as functional. Details: scale not given: the % may be the effect or the level left.

On to `O=c1[nH]c(=O)n([C@H]2C[C@@H](O)[C@@H](CO)O2)cc1Br`, for which the Activity in the series on Hepatitis B virus [1] and in the series on Duck hepatitis B virus [2] was 0% throughout. The molecule further gave a CC50 in series [3] of more than 651 µM.

In the case of `O=c1ccn([C@H]2C[C@@H](O)[C@@H](CO)O2)c(=O)[nH]1`, the Activity in the series on Hepatitis B virus [1] and with Duck hepatitis B virus [2] was 0% in each case. The CC50 in series [3] was more than 877 µM.

As for `Cc1cn([C@H]2C[C@@H](O)[C@@H](CO)O2)c(=O)[nH]c1=S`, the Activity in the series with Hepatitis B virus [1] and with Duck hepatitis B virus [2] was 0% each time. This molecule also came in with a half-maximal cytotoxic concentration (CC50) in [3] of more than 775 µM.

Turning to `CCc1cn([C@H]2C[C@@H](O)[C@@H](CO)O2)c(=O)[nH]c1=O`, the Activity in the series on Hepatitis B virus [1] and in the series with Duck hepatitis B virus [2] was 0% each time. The CC50 in series [3] is more than 781 µM.

Take `O=c1[nH]c(=O)n([C@H]2C[C@@H](O)[C@@H](CO)O2)cc1Cl`: the Activity is listed as 15% in the series on Hepatitis B virus [4] and 25% in the series on Duck hepatitis B virus [5]. Moreover, in series [3], the CC50 is more than 763 µM.

For `O=c1ccn([C@@H]2O[C@H](CO)[C@@H](F)[C@@H]2O)c(=O)[nH]1`, the Activity was 15% in the series on Hepatitis B virus [4] and 25% in the series with Duck hepatitis B virus [5]. The cytotoxic concentration (CC50) in series [3] is more than 813 µM.

`Cc1cn([C@@H]2O[C@H](CO)[C@@H](F)[C@@H]2O)c(=O)[nH]c1=O`: the Activity with Hepatitis B virus [1] and with Duck hepatitis B virus [2] was 0% each time. The molecule also displayed a CC50 in series [3] of more than 769 µM.

As to `O=c1ccn([C@@H]2O[C@H](CO)[C@H](O)[C@H]2F)c(=O)[nH]1`, the figures for the Activity with Hepatitis B virus [4] and with Duck hepatitis B virus [5] were 40% and 50%, respectively. For the same molecule, in the series on Duck hepatitis B virus [6], the EC50 turned out to be 40.6 µM. Also, the cytotoxic concentration (CC50) in [3] was more than 813 µM.

Take `Cc1cn([C@@H]2O[C@H](CO)[C@H](O)[C@H]2F)c(=O)[nH]c1=O`: the EC50 with Hepatitis B virus [7] was 19.2 µM; in the series with Hepatitis B virus [9], 19.2 µM; in the series with Duck hepatitis B virus [6] it was 3.84 µM. Besides, the Activity is on record as 50% in the series on Hepatitis B virus [8]; 60% in the series on Hepatitis B virus [4]; 50% in the series on Hepatitis B virus [10]; 72% with Duck hepatitis B virus [5]; 50% in the series on Duck hepatitis B virus [11]. In series [3], this molecule registered a CC50 of more than 769 µM.

`Cc1cn([C@@H]2O[C@H](CO)C=C2F)c(=O)[nH]c1=O`: the 50% effective concentration (EC50) in the series with Hepatitis B virus [7] amounted to 2 µM; in the series with Hepatitis B virus [9], 4.1 µM; in the series with Duck hepatitis B virus [6], 0.2 µM. In addition, the Activity was determined as 50% in the series with Hepatitis B virus [12]; 58% with Hepatitis B virus [13]; 50% with Hepatitis B virus [14]; 85% with Hepatitis B virus [4]; 50% with Duck hepatitis B virus [15]; 94% with Duck hepatitis B virus [5]. Also, the Activity with Duck hepatitis B virus [11] was 67%. Besides, the cytotoxic concentration (CC50) in series [3] is more than 413 µM.

On to `CCc1cn([C@@H]2O[C@H](CO)C=C2F)c(=O)[nH]c1=O`, for which the EC50 with Hepatitis B virus [7], with Hepatitis B virus [9] and in the series with Duck hepatitis B virus [6] was 39.1 µM in each case. In addition, the Activity with Hepatitis B virus [16], in the series with Hepatitis B virus [4] and in the series on Duck hepatitis B virus [5] was 50% in each case. The CC50 in [3] was more than 781 µM.

In the case of `Cc1cn([C@H]2C[C@@H](O)[C@@H](CO)O2)c(=O)[nH]c1=O`, the values for the concentration giving a half-maximal response (EC50) with Hepatitis B virus [7] and with Duck hepatitis B virus [6] were 41.3 µM and 4.13 µM, respectively. Further, the Activity amounted to 45% with Hepatitis B virus [16], 50% in the series on Hepatitis B virus [4], 65% in the series with Duck hepatitis B virus [5] and 50% in the series on Duck hepatitis B virus [11]. In series [3], this molecule registered a cytotoxic concentration (CC50) of more than 826 µM.

Turning to `Nc1ncnc2c1ncn2[C@H]1CC(O)[C@@H](CO)O1` (single isomer, unassigned) [DEOXYADENOSINE], the Activity in the series with Hepatitis B virus [4] was 36%; in the series on Duck hepatitis B virus [5], 40%.

Take `O=c1[nH]c(=O)n([C@H]2CC(O)[C@@H](CO)O2)cc1F` (single isomer, unassigned) [FLOXURIDINE]: the Activity in the series on Hepatitis B virus [1] and in the series with Duck hepatitis B virus [2] was 0% each time. Also, the cytotoxic concentration (CC50) in series [3] is more than 813 µM.

As for `O=c1[nH]c(=O)n([C@H]2CC(O)[C@@H](CO)O2)cc1C(F)(F)F` (single isomer, unassigned) [TRIFLURIDINE], the EC50 worked out at 33.7 µM with Hepatitis B virus [7], 33.7 µM with Hepatitis B virus [9] and 3.37 µM with Duck hepatitis B virus [6]. Further, the Activity in the series with Hepatitis B virus [16] was 50%; in the series with Hepatitis B virus [4] it was 55%; in the series with Duck hepatitis B virus [5], 70%; with Duck hepatitis B virus [11] it was 50%. This molecule also yielded a 50% cytotoxic concentration (CC50) in series [3] of more than 675 µM.

Consider `Nc1nc(NC2CC2)c2ncn([C@H]3C=C[C@@H](CO)C3)c2n1` [ABACAVIR], for which, in the series on Hepatitis B virus [9], the EC50 is less than 2.6 µM. The Activity with Hepatitis B virus [17] came to 80%.

On to `O=c1[nH]c(=O)n([C@H]2C[C@H](O)[C@@H](CO)O2)cc1I` [IDOXURIDINE], for which the Activity with Hepatitis B virus [1] and with Duck hepatitis B virus [2] was 0% throughout. The same molecule had a cytotoxic concentration (CC50) in [3] of more than 282 µM.

With `Nc1ccn([C@@H]2CS[C@H](CO)O2)c(=O)n1` [LAMIVUDINE], the EC50 with Hepatitis B virus [7] was 0.22 µM; in the series on Hepatitis B virus [9], more than 44 µM; with Duck hepatitis B virus [6], less than 0.044 µM. The Activity in the series on Hepatitis B virus [16] was 40%; in the series with Duck hepatitis B virus [18], 95%; in the series with Hepatitis B virus [19] it was 85%. The molecule further registered a CC50 in series [3] of more than 873 µM.
